This note sets out measurements from patent US20260265238A1, “COMPOUNDS AND PHARMACEUTICAL COMPOSITIONS THAT DEGRADE SWI/SNF-RELATED MATRIX-ASSOCIATED ACTIN-DEPENDENT REGULATOR OF CHROMATIN SUBFAMILY A” (Plexium, Inc., priority 2023, published 2026).

For assay [1], the target named is T1, SMARCA2-HiBiT HeLa cells (protein which is expressed from the SMARCA2 gene) (Homo sapiens, UniProt P51531).
T1 construct: protein which is expressed from the SMARCA2 and SMARCA4 genes; host or cells: HeLa (SMARCA2-HiBiT engineered line)
Kind of assay: SMARCA2 degradation assay (HiBiT-fusion HeLa cell line, 24 h, luminescence). The assay is classed as cell-based. In short, it runs like this: (§1)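 In this 24-hour cellular degradation readout, HiBiT-tagged HeLa lines received compound at up to typically 10 μM down to 300 pM in 10 points. After lysis with LgBiT and substrate, luminescence signals were used to build dose-response curves for DC50.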

Assay [2] deals with T2, SMARCA4-HiBiT HeLa cells (protein which is expressed from the SMARCA4 gene) (Homo sapiens, UniProt P51532).
T2 construct: protein which is expressed from the SMARCA2 and SMARCA4 genes; host or cells: HeLa (SMARCA4-HiBiT engineered line)
Kind of assay: SMARCA4 degradation assay (HiBiT-fusion HeLa cell line, 24 h, luminescence). Format: cell-based. In short, it runs like this:
as §1
Background: The HiBiT peptide binds its large partner to form an active luciferase.

T2 sequence (P51532 whole entry): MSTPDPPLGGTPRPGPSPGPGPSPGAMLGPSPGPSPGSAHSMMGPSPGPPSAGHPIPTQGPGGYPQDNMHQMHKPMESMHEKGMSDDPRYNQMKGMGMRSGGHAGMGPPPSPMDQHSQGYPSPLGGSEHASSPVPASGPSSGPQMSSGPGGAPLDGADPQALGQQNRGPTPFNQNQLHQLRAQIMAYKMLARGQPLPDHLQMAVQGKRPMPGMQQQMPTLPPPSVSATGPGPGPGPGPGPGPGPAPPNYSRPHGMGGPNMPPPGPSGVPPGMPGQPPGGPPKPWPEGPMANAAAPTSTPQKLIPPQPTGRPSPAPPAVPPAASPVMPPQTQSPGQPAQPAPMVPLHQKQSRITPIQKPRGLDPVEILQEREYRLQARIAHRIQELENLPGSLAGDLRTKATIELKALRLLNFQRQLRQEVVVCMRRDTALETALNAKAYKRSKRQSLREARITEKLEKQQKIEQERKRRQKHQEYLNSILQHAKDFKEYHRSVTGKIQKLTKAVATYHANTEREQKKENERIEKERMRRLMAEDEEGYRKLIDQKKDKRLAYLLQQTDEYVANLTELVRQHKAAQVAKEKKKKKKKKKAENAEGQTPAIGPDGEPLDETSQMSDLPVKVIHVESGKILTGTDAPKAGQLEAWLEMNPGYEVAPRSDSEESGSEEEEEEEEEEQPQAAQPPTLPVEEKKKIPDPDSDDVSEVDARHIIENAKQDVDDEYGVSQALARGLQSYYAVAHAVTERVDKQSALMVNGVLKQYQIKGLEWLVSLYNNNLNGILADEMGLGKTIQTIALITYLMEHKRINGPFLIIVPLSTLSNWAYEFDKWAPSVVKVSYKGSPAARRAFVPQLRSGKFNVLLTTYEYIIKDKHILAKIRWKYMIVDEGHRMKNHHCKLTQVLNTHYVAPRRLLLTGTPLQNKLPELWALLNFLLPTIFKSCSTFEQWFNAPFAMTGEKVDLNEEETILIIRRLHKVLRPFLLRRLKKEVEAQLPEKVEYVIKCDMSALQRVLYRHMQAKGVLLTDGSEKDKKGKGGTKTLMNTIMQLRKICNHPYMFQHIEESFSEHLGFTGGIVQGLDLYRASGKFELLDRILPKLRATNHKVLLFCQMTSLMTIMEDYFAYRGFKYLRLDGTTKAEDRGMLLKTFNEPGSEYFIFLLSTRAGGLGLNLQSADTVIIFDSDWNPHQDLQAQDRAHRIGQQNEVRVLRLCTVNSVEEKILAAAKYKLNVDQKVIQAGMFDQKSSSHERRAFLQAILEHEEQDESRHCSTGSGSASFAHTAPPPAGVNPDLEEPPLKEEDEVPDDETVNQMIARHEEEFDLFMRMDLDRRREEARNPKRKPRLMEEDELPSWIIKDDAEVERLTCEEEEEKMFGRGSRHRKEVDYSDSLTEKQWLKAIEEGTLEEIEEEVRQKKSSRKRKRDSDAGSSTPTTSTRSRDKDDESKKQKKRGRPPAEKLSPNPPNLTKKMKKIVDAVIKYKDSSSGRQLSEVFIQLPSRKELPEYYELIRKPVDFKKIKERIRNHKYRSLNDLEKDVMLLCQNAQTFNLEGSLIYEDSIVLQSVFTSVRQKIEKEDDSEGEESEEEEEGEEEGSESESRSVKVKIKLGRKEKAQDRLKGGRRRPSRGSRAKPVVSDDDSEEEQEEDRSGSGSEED
T1 sequence (P51531 whole entry): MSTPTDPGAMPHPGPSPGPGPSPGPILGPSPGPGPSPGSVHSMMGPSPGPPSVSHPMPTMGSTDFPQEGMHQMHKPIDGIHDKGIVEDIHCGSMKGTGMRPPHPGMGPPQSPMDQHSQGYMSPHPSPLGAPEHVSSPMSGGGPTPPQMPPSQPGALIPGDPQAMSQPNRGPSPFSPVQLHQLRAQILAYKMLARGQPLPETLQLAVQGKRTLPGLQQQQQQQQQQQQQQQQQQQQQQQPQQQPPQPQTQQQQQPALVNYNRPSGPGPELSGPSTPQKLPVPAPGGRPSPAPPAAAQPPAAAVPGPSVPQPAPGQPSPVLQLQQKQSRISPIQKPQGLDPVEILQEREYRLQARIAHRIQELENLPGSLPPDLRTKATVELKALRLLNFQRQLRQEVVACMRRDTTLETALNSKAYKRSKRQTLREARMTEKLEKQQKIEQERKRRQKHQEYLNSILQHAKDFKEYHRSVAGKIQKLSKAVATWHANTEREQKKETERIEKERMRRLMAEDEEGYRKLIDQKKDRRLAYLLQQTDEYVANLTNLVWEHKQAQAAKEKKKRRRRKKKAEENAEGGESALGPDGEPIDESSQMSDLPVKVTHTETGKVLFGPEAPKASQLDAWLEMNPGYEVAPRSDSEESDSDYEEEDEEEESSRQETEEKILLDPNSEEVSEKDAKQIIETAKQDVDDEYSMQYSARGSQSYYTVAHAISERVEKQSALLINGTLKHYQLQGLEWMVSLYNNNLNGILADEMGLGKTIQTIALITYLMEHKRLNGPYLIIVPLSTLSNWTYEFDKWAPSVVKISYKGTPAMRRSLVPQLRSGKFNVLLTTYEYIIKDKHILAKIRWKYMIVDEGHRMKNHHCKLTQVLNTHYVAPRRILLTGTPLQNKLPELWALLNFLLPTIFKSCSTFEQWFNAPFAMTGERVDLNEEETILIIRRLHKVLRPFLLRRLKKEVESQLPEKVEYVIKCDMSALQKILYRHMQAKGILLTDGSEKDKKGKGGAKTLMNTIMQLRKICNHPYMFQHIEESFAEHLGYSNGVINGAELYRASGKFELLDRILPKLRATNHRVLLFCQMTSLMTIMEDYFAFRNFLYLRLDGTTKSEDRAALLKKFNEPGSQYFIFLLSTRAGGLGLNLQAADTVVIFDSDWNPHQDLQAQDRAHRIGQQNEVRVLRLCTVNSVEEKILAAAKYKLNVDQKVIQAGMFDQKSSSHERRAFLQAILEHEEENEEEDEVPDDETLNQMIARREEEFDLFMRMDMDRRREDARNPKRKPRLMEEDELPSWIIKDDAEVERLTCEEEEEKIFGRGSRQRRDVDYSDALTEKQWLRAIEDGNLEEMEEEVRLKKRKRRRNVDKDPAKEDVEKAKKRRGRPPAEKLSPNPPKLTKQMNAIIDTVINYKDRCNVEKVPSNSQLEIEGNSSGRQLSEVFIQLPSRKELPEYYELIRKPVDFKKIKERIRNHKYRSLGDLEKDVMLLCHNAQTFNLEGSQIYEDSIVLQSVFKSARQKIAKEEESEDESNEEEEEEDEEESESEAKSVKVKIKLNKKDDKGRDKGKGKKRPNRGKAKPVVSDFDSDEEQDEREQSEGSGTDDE

On to `CC1CCC(C)N1CC#Cc1nccc(N2CCN(c3cc(-c4ccccc4O)nnc3N)CC[C@H]2C)n1` (stereo partly drawn) [Compound P-246, o-{5-[(R)-4-{2-[3-(2,5-dimethyl-1-pyrrolidinyl)-1-propynyl]-4-pyrimidinyl}-5-methyl-1,4-diazepan-1-yl]-6-amino-3-pyridazinyl}phenol], for which the 50% degradation concentration (DC50) in assay [1] and in assay [2] was less than 50 nM each time. For the same molecule, the “SMARCA2 % Degradation @ 1 μM” value in assay [1] (@ 1 μM) was “++ (++=30-70%)”. For the same molecule, in assay [2] (@ 1 μM), the inhibition (commonly the change of the read-out against control, counted positive when it falls) at 1 µM lay in the range of 30 to 70%.
For the molecule `C[C@@H]1CN(CC#Cc2nccc(N3CCCN(c4cc(-c5ccccc5O)nnc4N)CC3)n2)CCO1` [Compound P-313, 0-{5-[4-(2-{3-[(R)-2-methyl-4-morpholinyl]-1-propynyl}-4-pyrimidinyl)-1,4-diazepan-1-yl]-6-amino-3-pyridaziny1}phenol], the results for the DC50 in assay [1] and in assay [2] were 50 to 500 nM and 500 to 5000 nM, respectively. In addition, the “SMARCA2 % Degradation @ 1 μM” value in assay [1] (@ 1 μM) is “++ (++=30-70%)”. Further, the inhibition at 1 µM in assay [2] (@ 1 μM) was less than 30%.
For `C[C@@H]1CCN(c2cc(-c3ccccc3O)nnc2N)CCN1c1nc(C#CCn2ccnc2)ncc1F` [Compound P-247, o-{5-[(R)-4-{5-fluoro-2-[3-(1-imidazolyl)-1-propynyl]-4-pyrimidinyl}-5-methyl-1,4-diazepan-1-yl]-6-amino-3-pyridaziny1}phenol] the same measures were 50 to 500 nM, 50 to 500 nM, “++ (++=30-70%)” and 30 to 70%.
As for `C[C@@H]1CN(CC#Cc2nccc(N3CCCN(c4cc(-c5ccccc5O)nnc4N)CC3)n2)C[C@H](c2ccccc2)O1` [Compound P-380, 0-{5-[4-(2-{3-[(2R,6S)-2-methyl-6-phenyl-4-morpholinyl]-1-propynyl}-4-pyrimidinyl)-1,4-diazepan-1-yl]-6-amino-3-pyridazinyl}phenol], the 50% degradation concentration (DC50) in assay [1] and in assay [2] was 500 to 5000 nM throughout. The “SMARCA2 % Degradation @ 1 μM” value in assay [1] (1 μM) was “++ (++=30-70%)”. For the same molecule, the inhibition at 1 µM in assay [2] (1 μM) is less than 30%.
In the case of `Nc1nnc(-c2ccccc2O)cc1N1CCN(c2ccnc(C#CCNC(=O)c3ccn(C(F)F)n3)n2)CC1` [Compound P-10, N-[3-(4-{4-[3-amino-6-(2-hydroxyphenyl)pyridazin-4-yl]piperazin-1-yl}pyrimidin-2-yl)prop-2-yn-1-y1]-1-(difluoromethyl)-1H-pyrazole-3-carboxamide], the half-maximal degradation concentration (DC50) (as a rule, the midpoint of the concentration-degradation curve) in assay [1] is 50 to 500 nM; in assay [2], less than 50 nM. For the same molecule, the “SMARCA2 % Degradation @ 1 μM” value in assay [1] (@ 1 μM) is on record as “++ (++=30-70%)”. The inhibition at 1 µM in assay [2] (@ 1 μM) was in the range of 30 to 70%.
For `C[C@@H]1CCN(c2cc(-c3ccccc3O)nnc2N)CCN1c1ccnc(C#CCN2CC(F)(F)C2)c1` [Compound P-421, 0-{5-[(R)-4-{2-[3-(3,3-difluoro-1-azetidinyl)-1-propynyl]-4-pyridyl}-5-methyl-1,4-diazepan-1-yl]-6-amino-3-pyridazinyl}phenol], the half-maximal degradation concentration (DC50) in assay [1] was 50 to 500 nM; in assay [2], less than 50 nM. Moreover, the “SMARCA2 % Degradation @ 1 μM” value in assay [1] (1 μM) is “++ (++=30-70%)”. This molecule also came in with an inhibition at 1 µM in assay [2] (1 μM) of 30 to 70%.
For the molecule `C[C@H]1CN(c2ccnc(C#CCN)n2)CCN1c1cc(-c2ccccc2O)nnc1N` [Compound P-86, (S)-2-(6-amino-5-(4-(2-(3-aminoprop-1-yn-1-yl)pyrimidin-4-yl)-2-methylpiperazin-1-yl)pyridazin-3-yl)phenol], the DC50 in assay [1] is 500 to 5000 nM; in assay [2], more than 5000 nM. The “SMARCA2 % Degradation @ 1 μM” value in assay [1] (@ 1 μM) was “+ (+=<30%)”.
For `Nc1nnc(-c2ccccc2O)cc1N1CCCN(c2ccnc(C#CCN3CCCC3)n2)CC1` [Compound P-366, 0-[6-amino-5-(4-{2-[3-(1-pyrrolidinyl)-1-propynyl]-4-pyrimidinyl}-1,4-diazepan-1-yl)-3-pyridazinyl]phenol], the 50% degradation concentration (DC50) in assay [1] and in assay [2] was 50 to 500 nM throughout. Further, the “SMARCA2 % Degradation @ 1 μM” value in assay [1] (@ 1 μM) is on record as “+++ (+++=>70%)”. For the same molecule, in assay [2] (@ 1 μM), the inhibition at 1 µM was more than 70%.
